Experimental data as given in patent US20240132477A1, “Benzimidazole Derivatives and Their Use As Inhibitors of ITK For The Treatment of Skin Disease” (PFIZER INC., priority 2020, published 2024).

Tests used:
[1] = target: IL-2-Inducible T-Cell Kinase (ITK) (Homo sapiens (Human), UniProt Q08881); experiment: ITK enzyme assay; assay type: biochemical; details: geometric mean of count n; ITK FL enzyme, BTK peptide substrate
Method: IL-2-Inducible T-Cell Kinase (ITK) Activity, IC50 (uM)
ITK activity was determined by measuring the effect of a test compound in an ITK enzyme assay.
1.0 M HEPES Buffer pH 7.5 solution was prepared as follows: 238.3 g HEPES free acid (Sigma) and 800 mL of water were combined, and the mixture was stirred until complete dissolution. The pH was adjusted to 7.5 via titration with 5N NaOH and the volume adjusted to 1000 mL. The solution was filtered and sterilized.
ITK assay buffer was prepared as follows: 50 mL of HPLC-grade water was treated with 2 mL of 1.0 M HEPES Buffer, 500 μL of 2% Gelatin (Sigma), 1.0 mL of aqueous MgCl2 solution (1.0 M), and 1.0 mL of aqueous glutathione solution (0.5 M), and the solution was mixed. The solution was brought to 99 mL in a graduated cylinder by addition of water and sterilized through a 0.2 μm filter. 0.1 mL of Brij-35™ Surfact-AmpS™ Detergent Solution (10% w/v aqueous solution, ThermoFisher) and 1.0 mL of ATP (Teknova, 100 mM) were added and the solution was mixed.
Preparation of 1.33×ITK enzyme solution was as follows: 49.99 mL of ITK assay buffer was treated with 4.1 μL of ITK enzyme (ITK FL (N-Flag and C-His tagged, ˜72 kDa) Lake Pharma, 0.25 mg/ml in a buffer containing 25 mM Tris pH 7.8, 150 mM NaCl, 10% glycerol and 2 mM TCEP) and the mixture was gently agitated. The resulting solution was stored on ice. 30 Minutes prior to use, the enzyme solution was removed from ice and equilibrated to RT by incubation in a RT water bath.
Preparation of 4×ITK substrate solution was as follows: 50 mL of ITK assay buffer was treated with 100 μL of BTK peptide (China Peptide Company, 2 mM stock solution in DMSO). The tube was capped, mixed by gently inverting the tube, and then stored on ice. 30 Minutes prior to use, the substrate solution was removed from ice and equilibrated to RT by incubation in a RT water bath.
At the time of assay, 7.5 μL of the 1.33×ITK enzyme solution was added to plate wells containing 0.1 μL of varying concentrations of test compound in DMSO. The plate was incubated 30 min at RT. The plate wells were each treated with 2.5 uL of the 4×ITK substrate solution and the plate was sealed (TopSeal™, Perkin Elmer). The plate was spun at 1000 rpm for 30 sec and then incubated for 60 min at RT. The seal was removed, and each well was treated with 10 μL of Stop/Detect Buffer (20 mM HEPES pH 7.5, 0.01% gelatin, 1 nM LANCE PT66 (Perkin Elmer), 16.5 μg/ml Surelight APC (Perkin Elmer), 10 mM EDTA, 250 mM NaCl). The plate was again covered and was spun at 1000 rpm for 30 seconds. The plate was allowed to incubate overnight at RT and in a closed carrier to reduce dehydration. The seal was removed, and the fluorescence was read with a plate reader with […]. The concentrations and resulting effect values for the tested compound were plotted and the concentration of compound required for 50% effect (IC50) was determined with the four-parameter logistic dose response equation.

[2] = tested on: IL-2 in supernatants from activated CD4+ human T-cells; experiment: IL-2 inhibition in supernatants from activated CD4+ human T-cells (cisbio HTRF); assay type: cell-based; details: T-cell; geometric mean of count n; activated CD4+ human T-cells, 20 to 24 hrs; read-out: IL-2 IC50
Method: IL-2-Inhibition Activity, IC50 (uM)
IL-2 inhibition activity in supernatants from activated CD4+ human T-cells was determined by measuring the effect of a test compound on the activity using the cisbio HTRF™ technology.
Human CD4+ T cells were activated with CD3/CD28 for 3 days and expanded for an additional 4-6 days (7 to 9 days total). On day 0, frozen CD4+ T cells were thawed, treated with CD3/CD28 Dynabeads, and incubated at 37° C./5% CO2. On day 3, the beads were removed, and the cells were diluted to 5×10^5 cells/cm^2, placed in G-Rex10 flask, and incubated at 37° C./5% CO2. On day 7 to day 9 the cells were removed from the G-Rex flasks, counted and diluted back to 1×10^6 cells/ml in standard tissue culture flask.
The expanded CD4+ T-cells were centrifuged at 300×g for 10 minutes and resuspended to 0.5 million cells per ml (30,000 cells/well). 60 μl of CD4+ T cells were added per well to a 384 well plate containing 0.1 μL of varying concentrations of test compound in DMSO. The plates were incubated for 15 min at 37° C./5% CO2. 20 μl of diluted ImmunoCult™ (STEMCELL Technologies, 1:12.5 in T cell assay media) were added to all wells of the plate (1:50 final assay concentration). The plates were incubated for an additional 20 to 24 hrs at 37° C./5% CO2. The plates were centrifuged at 300×g for 10 minutes. 16 μL of supernatant was removed and combined with 4 μl of IL-2 HTRF Abs. (cisbio kit). Plates were incubated for 3 hours at RT and read with an EnVision plate reader at 665 nm and 615 nm wavelengths. The concentrations and resulting effect values for the tested compound were plotted and the concentration of compound required for 50% effect (IC50) was determined with the four-parameter logistic dose response equation.

IL-2-Inducible T-Cell Kinase (ITK), sequence (Q08881 whole entry): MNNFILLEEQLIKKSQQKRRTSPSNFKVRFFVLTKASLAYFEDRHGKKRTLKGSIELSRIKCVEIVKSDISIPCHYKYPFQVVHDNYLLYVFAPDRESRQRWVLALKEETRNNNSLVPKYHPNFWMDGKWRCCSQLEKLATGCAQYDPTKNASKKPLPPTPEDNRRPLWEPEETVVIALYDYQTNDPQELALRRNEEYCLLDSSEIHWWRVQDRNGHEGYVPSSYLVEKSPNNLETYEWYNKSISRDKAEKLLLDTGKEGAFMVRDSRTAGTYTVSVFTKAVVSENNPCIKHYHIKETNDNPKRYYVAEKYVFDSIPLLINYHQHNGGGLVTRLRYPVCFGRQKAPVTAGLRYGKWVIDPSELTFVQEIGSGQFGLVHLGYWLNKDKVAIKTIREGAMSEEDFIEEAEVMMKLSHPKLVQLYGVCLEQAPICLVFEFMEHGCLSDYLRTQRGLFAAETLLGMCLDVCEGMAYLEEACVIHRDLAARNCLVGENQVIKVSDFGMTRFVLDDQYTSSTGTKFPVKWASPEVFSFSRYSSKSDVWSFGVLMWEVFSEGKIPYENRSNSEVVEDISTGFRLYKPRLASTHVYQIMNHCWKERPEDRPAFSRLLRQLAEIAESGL

SMILES	IC50 [1]	IC50 [2]
Cc1cc2[nH]c(-c3n[nH]c4c3C[C@@H]3C[C@]3(C)C4)nc2cc1N(C)C(=O)CN1CCCOC1=O [Example 1, N-Methyl-N-(6-methyl-2-((4aS,5aR)-5a-methyl-1,4,4a,5,5a,6-hexahydrocyclopropa[f]indazol-3-yl)-1H-benzo[d]imidazol-5-yl)-2-(2-oxo-1,3-oxazinan-3-yl)acetamide]	3 nM	59 nM
CC(=O)N(C)c1ccc2[nH]c(-c3n[nH]c4c3C[C@H]3C(F)(F)[C@@]3(C)C4)nc2c1 [Example 3, N-(2-((4aR,5aS)-5,5-difluoro-5a-methyl-1,4,4a,5,5a,6-hexahydrocyclopropa[f]indazol-3-yl)-1H-benzo[d]imidazol-5-yl)-N-methylacetamide]	821 nM	848 nM
CCN(C(C)=O)c1cc2nc(-c3n[nH]c4c3C[C@@H]3C[C@]3(C)C4)[nH]c2cc1C [Example 5, N-ethyl-N-(6-methyl-2-((4aS,5aR)-5a-methyl-1,4,4a,5,5a,6-hexahydrocyclopropa[f]indazol-3-yl)-1H-benzo[d]imidazol-5-yl)acetamide]	16 nM	86 nM
CC(=O)N(C)c1cc2nc(-c3n[nH]c4c3C[C@@H]3C[C@]3(C)C4)[nH]c2c(F)c1C [Example 8, N-(7-fluoro-6-methyl-2-((4aS,5aR)-5a-methyl-1,4,4a,5,5a,6-hexahydrocyclopropa[f]indazol-3-yl)-1H-benzo[d]imidazol-5-yl)-N-methylacetamide]	20 nM	129 nM
CC(=O)N(C)c1cc2nc(-c3n[nH]c4c3C[C@@H]3C[C@]3(C)C4)[nH]c2cc1Br [Example 9, N-(6-bromo-2-((4aS,5aR)-5a-methyl-1,4,4a,5,5a,6-hexahydrocyclopropa[f]indazol-3-yl)-1H-benzo[d]imidazol-5-yl)-N-methylacetamide]	20 nM	139 nM
C[C@H](C(=O)N(C)c1cc(F)c2nc(-c3n[nH]c4c3C[C@@H]3C[C@]3(C)C4)[nH]c2c1)N1CCCOC1=O [Example 10, (R)-N-(4-fluoro-2-((4aS,5aR)-5a-methyl-1,4,4a,5,5a,6-hexahydrocyclopropa[f]indazol-3-yl)-1H-benzo[d]imidazol-6-yl)-N-methyl-2-(2-oxo-1,3-oxazinan-3-yl)propenamide]	49 nM	342 nM
C[C@@H](C(=O)N(C)c1cc(F)c2nc(-c3n[nH]c4c3C[C@@H]3C[C@]3(C)C4)[nH]c2c1)N1CCCOC1=O [Example 11, (S)-N-(4-fluoro-2-((4aS,5aR)-5a-methyl-1,4,4a,5,5a,6-hexahydrocyclopropa[f]indazol-3-yl)-1H-benzo[d]imidazol-6-yl)-N-methyl-2-(2-oxo-1,3-oxazinan-3-yl)propenamide]	31 nM	324 nM
Cc1cc2nc(-c3n[nH]c4c3C[C@@H]3C[C@]3(C)C4)[nH]c2cc1N(C)C(=O)C1(F)CCOCC1 [Example 12, 4-fluoro-N-methyl-N-(5-methyl-2-((4aS,5aR)-5a-methyl-1,4,4a,5,5a,6-hexahydrocyclopropa[f]indazol-3-yl)-1H-benzo[d]imidazol-6-yl)tetrahydro-2H-pyran-4-carboxamide]	7 nM	47 nM
Cc1cc2nc(-c3n[nH]c4c3C[C@@H]3C[C@]3(C)C4)[nH]c2cc1N(C)C(=O)C1C[C@@H]2[C@H](C1)C2(F)F (stereo partly drawn) [Example 13, (1R,5S)-6,6-difluoro-N-methyl-N-(5-methyl-2-((4aS,5aR)-5a-methyl-1,4,4a,5,5a,6-hexahydrocyclopropa[f]indazol-3-yl)-1H-benzo[d]imidazol-6-yl)bicyclo[3.1.0]hexane-3-carboxamide]	7 nM	49 nM
Cc1cc2[nH]c(-c3n[nH]c4c3C[C@@H]3C[C@]3(C)C4)nc2cc1N(C)C(=O)C(C)N1CCCCC1 (stereo partly shown) [Example 14]	47 nM	196 nM
Cc1cc2[nH]c(-c3n[nH]c4c3C[C@@H]3C[C@]3(C)C4)nc2cc1N(C)C(=O)C(C)N1CCCOCC1 (stereo partly drawn) [Example 15, N-methyl-N-(6-methyl-2-((4aS,5aR)-5a-methyl-1,4,4a,5,5a,6-hexahydrocyclopropa[f]indazol-3-yl)-1H-benzo[d]imidazol-5-yl)-2-(1,4-oxazepan-4-yl)propenamide]	42 nM	166 nM
CCc1cc2[nH]c(-c3n[nH]c4c3C[C@@H]3C[C@]3(C)C4)nc2cc1N(C)C(C)=O [Example 16, N-(6-ethyl-2-((4aS,5aR)-5a-methyl-1,4,4a,5,5a,6-hexahydrocyclopropa[f]indazol-3-yl)-1H-benzo[d]imidazol-5-yl)-N-methylacetamide]	23 nM	118 nM
Cc1cc2[nH]c(-c3n[nH]c4c3C[C@@H]3C[C@]3(C)C4)nc2cc1N(C)C(=O)C(C)N1CCCC1=O (stereo partly drawn) [Example 18, N-Methyl-N-(5-methyl-2-((4aS,5aR)-5a-methyl-1,4,4a,5,5a,6-hexahydrocyclopropa[f]indazol-3-yl)-1H-benzo[d]imidazol-6-yl)-2-(2-oxopyrrolidin-1-yl)propenamide]	54 nM	370 nM
Cc1cc2[nH]c(-c3n[nH]c4c3C[C@@H]3C[C@]3(C)C4)nc2cc1N(C)C(=O)C1CC1 [Example 19, N-Methyl-N-(5-methyl-2-((4aS,5aR)-5a-methyl-1,4,4a,5,5a,6-hexahydrocyclopropa[f]indazol-3-yl)-1H-benzo[d]imidazol-6-yl)cyclopropanecarboxamide]	8 nM	67 nM
Cc1cc2[nH]c(-c3n[nH]c4c3C[C@@H]3C[C@]3(C)C4)nc2cc1N(C)C(=O)CN1CCCCC1=O [Example 20, N-Methyl-N-(5-methyl-2-((4aS,5aR)-5a-methyl-1,4,4a,5,5a,6-hexahydrocyclopropa[f]indazol-3-yl)-1H-benzo[d]imidazol-6-yl)-2-(2-oxopiperidin-1-yl)acetamide]	4 nM	59 nM
CC(=O)N(C)CC(=O)N(C)c1cc2nc(-c3n[nH]c4c3C[C@@H]3C[C@]3(C)C4)[nH]c2cc1C [Example 21, N-Methyl-N-(5-methyl-2-((4aS,5aR)-5a-methyl-1,4,4a,5,5a,6-hexahydrocyclopropa[f]indazol-3-yl)-1H-benzo[d]imidazol-6-yl)-2-(N-methylacetamido)acetamide]	4 nM	79 nM
Cc1cc2[nH]c(-c3n[nH]c4c3C[C@@H]3C[C@]3(C)C4)nc2cc1N(C)C(=O)C(C)C [Example 22, N-Methyl-N-(5-methyl-2-((4aS,5aR)-5a-methyl-1,4,4a,5,5a,6-hexahydrocyclopropa[f]indazol-3-yl)-1H-benzo[d]imidazol-6-yl)isobutyramide]	5 nM	43 nM
